Experimental data taken from PMC10900215 (JACS Au, 2024).
Several values for one entry are separate records, joined by “and”; a condition that tells them apart may be missing. Equal values may be shown once.

Columns and labels:
[1] = target: T1, METTL3 (Homo sapiens, UniProt Q86U44); experiment: Cellular degradation assay (Western blot), METTL3 in MOLM-13; assay type: cell-based; details: MOLM-13, 24 h, 2 μM compound
T1 construct: METTL3–14 degradation up to 70% of the endogenous level; endogenous in cells; host or cells: MOLM-13, PC3, DU145
T1 sequence (Q86U44 2-580 limits assumed): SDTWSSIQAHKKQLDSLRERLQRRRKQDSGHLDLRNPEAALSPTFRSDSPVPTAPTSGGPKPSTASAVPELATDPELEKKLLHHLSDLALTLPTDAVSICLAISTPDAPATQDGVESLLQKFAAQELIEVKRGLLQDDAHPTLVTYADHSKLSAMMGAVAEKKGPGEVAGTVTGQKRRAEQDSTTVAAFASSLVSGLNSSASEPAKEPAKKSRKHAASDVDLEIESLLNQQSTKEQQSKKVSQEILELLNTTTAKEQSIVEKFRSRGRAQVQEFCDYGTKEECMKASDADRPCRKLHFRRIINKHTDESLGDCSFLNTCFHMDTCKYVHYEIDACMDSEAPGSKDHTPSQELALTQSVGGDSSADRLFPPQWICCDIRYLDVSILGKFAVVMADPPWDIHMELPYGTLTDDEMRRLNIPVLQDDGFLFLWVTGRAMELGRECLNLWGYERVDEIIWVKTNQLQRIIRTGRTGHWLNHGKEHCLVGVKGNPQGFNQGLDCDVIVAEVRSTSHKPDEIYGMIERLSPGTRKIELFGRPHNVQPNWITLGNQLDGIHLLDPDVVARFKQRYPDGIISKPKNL
T1 sequence (Q9HCE5 whole entry partner): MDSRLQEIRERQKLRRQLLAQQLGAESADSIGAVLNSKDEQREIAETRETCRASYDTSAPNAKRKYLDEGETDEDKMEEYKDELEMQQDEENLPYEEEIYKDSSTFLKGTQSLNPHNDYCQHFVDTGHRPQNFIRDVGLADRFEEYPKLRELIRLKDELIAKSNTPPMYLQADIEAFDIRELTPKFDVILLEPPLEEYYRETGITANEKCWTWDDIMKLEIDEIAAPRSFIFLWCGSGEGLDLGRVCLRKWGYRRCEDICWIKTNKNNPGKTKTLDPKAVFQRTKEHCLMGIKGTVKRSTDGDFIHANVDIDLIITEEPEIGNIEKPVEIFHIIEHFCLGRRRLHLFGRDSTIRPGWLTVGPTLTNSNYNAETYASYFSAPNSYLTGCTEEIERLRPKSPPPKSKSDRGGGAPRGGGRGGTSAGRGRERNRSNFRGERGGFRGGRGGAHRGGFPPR
Protocol: (§1) MOLM-13, NOMO-1, THP-1, Kasumi-1, PC3, and DU145 cell lines were obtained from DSMZ-German Collection of Microorganisms and Cell Cultures GmbH. Cells were cultured in RPMI 1640 medium (11875093, Thermo Fisher Scientific) containing 10% FBS (16140071, Thermo Fisher Scientific) and 1% penicillin-streptomycin (15140122, Thermo Fisher Scientific) in 5% CO2 at 37 °C in a humidified incubator, with maintained cell densities at 0.5–1 × 10^6 cells/mL. All cell lines were tested negative for mycoplasma contamination (PCR-based assay by Microsynth, Switzerland).
(§2) METTL3 (and METTL14) protein degradation was monitored by Western blot. Cells were treated with the indicated concentration of PROTACs or DMSO control (0.1% (v/v)) for 24h, 37 °C with 5% CO2. Samples were then collected and lysed with RIPA buffer with added protease inhibitors (11697498001, Roche). After SDS-PAGE, proteins were transferred to a nitrocellulose membrane, blocked (with 5% milk, 0.5% BSA in TBST buffer), and incubated overnight with primary antibodies. The following antibodies were used: GAPDH (no. 2118, Cell Signaling, 1:4000), β-actin (ab8226, Abcam, 1:2000), METTL3 (ab195352, Abcam, 1:1000), and METTL14 (ab220031, Abcam, 1:1000). Membranes were scanned using an LI-COR Odyssey DLx imager after incubation with appropriate secondary antibodies (antimouse IgG IRDye 680RD (926–68072, LI-COR, 1:10000) and goat anti-Rabbit IgG IRDye 800CW (926–32211, LI-COR, 1:10000)). Densitometry was performed in Image Studio Lite software and analyzed in GraphPad Prism 9.

[2] = test system: METTL14; experiment: Cellular degradation assay (Western blot), METTL14 in MOLM-13; assay type: cell-based, human; details: MOLM-13, 24 h, 2 μM compound
Protocol: as §1, §2

[3] = target: T2, ternary complex CRBN/PROTAC/METTL3–14 (Homo sapiens, UniProt Q86U44+Q96SW2); experiment: FRET-based ternary complex formation assay (TCFA); assay type: binding; details: for TCFA amplitude (mean ± SEM): Hook curve amplitude, fraction of the maximum of compound 16; for ECmax (nM) ± SD: PROTAC concentration at the maximum of the signal in the TCFA; for ECmax: TCFA, peak of the Hook curve
T2 construct: methyltransferase domains (MTD) of METTL3 (residues 354–580); His6 (N, cleaved yes); made in house; host or cells: METTL3-MTD/METTL14-MTD: baculovirus/Sf9; CRBN-TBD: E. coli Rosetta (DE3), co-expressed with BirA
T2 sequence (Q86U44 354-580): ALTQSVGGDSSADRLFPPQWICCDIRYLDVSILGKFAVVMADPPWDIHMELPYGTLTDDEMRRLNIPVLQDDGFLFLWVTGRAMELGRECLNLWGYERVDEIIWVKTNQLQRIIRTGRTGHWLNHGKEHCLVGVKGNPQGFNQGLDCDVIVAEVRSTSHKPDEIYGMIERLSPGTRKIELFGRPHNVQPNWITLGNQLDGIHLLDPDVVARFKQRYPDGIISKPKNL
T2 sequence (Q9HCE5 107-395 partner limits assumed): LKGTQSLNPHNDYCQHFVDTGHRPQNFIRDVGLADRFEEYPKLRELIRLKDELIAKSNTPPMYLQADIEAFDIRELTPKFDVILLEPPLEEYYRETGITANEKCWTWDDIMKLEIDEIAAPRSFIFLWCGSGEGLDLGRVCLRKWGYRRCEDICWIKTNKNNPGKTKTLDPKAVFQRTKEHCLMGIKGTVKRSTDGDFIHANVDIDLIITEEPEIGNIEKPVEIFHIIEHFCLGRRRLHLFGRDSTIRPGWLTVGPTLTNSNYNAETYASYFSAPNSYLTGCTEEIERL
T2 sequence (Q96SW2 318-442): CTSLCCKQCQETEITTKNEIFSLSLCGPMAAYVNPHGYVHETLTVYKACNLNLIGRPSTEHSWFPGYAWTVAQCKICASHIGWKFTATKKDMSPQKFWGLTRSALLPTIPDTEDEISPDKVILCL
Protocol: For protein expression, suspension cultures of Sf9 cells in […] medium (Thermo Fisher) were infected at a density of 2 × 10^6 mL^–1. […] The complex was further purified by size exclusion chromatography using a Superdex 200 Increase 10/300 GL column (Cytiva) in 20 mM Tris-Cl, pH 8.0, and 200 mM KCl. The complex was aliquoted and flash-frozen in liquid nitrogen and stored at −80 °C until further use.
Ternary complex formation between the PROTACs, METTL3, and CRBN was quantified by a homogeneous time-resolved fluorescence (HTRF)-based enzyme assay. […] Curves of titrations with the PROTACs were plotted in GraphPad Prism 9.5.1 and fitted with a Gaussian function, if appropriate. […] CRBN^TBD-Avi(biotin) was used at a final concentration of 10 nM. […] Anti-GST Eu^3+-labeled antibody (Cisbio, 61GSTKLB) was used at a final concentration of 0.8 nM. The final reaction volume was 20 μL in 50 mM HEPES (pH 7.5), 150 mM NaCl, 0.1% BSA, 100 mM KF. […] The ratio of the emissions [drawing 1] was considered for further analysis. […] The concentrations resulting in the maximum signal (ECmax) and the amplitudes of the Hook curves were determined from the parameters of the Gaussian fit (if appropriate) or as the coordinates of the data-point with the highest TR-FRET signal.
For the ternary complex formation assay (TCFA), one of the protein partners must have a GST-tag and the other a biotin-tag.

[4] = Cell viability assay (CellTiter-Glo) on MOLM-13; assay type: cell-based; details: human, MOLM-13 cells, average of two biological replicates; for viability at 72 h, […]: 2.5 µM
Protocol: as §1
Cell viability was determined using a CellTiter-Glo luminescent cell viability assay (Promega) based on the detection of ATP according to the manufacturer’s instructions. 100 μL of the reagent was added to each well and incubated for 10 min at room temperature. […] Background luminescence value was obtained from wells containing the CellTiter-Glo reagent and medium without cells. The resulting data was analyzed in GraphPad Prism 9.

[5] = target: METTL3-14 (Homo sapiens, UniProt Q86U44); experiment: biochemical; design: with the full-length complex, the recombinant complex construct pFastBacDual-StrepII-GFP-TEV-METTL3-His-TEV-METTL14 was expressed; StrepII (N); GFP (N); TEV site (N); made in house; host or cells: baculovirus/Sf9 insect cells; details: inhibition of catalytic activity of METTL3-14, binary FRET assay
Chain of METTL3-14 (Q86U44 whole entry): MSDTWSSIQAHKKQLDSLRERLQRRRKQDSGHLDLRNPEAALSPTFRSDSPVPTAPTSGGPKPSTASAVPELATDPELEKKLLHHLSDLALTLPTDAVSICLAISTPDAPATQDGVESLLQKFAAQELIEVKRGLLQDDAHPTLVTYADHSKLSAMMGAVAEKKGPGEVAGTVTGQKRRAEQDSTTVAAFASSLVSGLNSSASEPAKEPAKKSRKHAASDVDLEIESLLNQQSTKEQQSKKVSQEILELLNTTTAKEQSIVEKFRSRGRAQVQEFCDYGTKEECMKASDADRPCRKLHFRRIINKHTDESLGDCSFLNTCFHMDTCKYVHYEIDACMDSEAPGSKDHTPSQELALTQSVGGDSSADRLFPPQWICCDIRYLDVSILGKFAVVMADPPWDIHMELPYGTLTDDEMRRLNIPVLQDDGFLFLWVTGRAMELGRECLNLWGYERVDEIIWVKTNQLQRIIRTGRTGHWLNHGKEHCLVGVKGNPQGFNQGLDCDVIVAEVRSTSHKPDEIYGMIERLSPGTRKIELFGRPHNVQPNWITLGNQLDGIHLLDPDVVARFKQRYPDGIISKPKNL
Chain of METTL3-14 (Q9HCE5 whole entry, further chain): as the sequence (Q9HCE5 whole entry partner) above
Excerpt: For determining the half maximal inhibitory concentration (IC50) with the full-length complex, the recombinant complex construct pFastBacDual-StrepII-GFP-TEV-METTL3-His-TEV-METTL14 was expressed using the baculovirus/Sf9 insect cell expression system and purified as described previously.[21]
The inhibitory potencies of the PROTACs for METTL3 were quantified by a homogeneous time-resolved fluorescence (HTRF)-based enzyme assay as previously described.[40]

Row | Compound | MOLM-13 West. blot at 24h 2 μM comp conc. Degradation (%) of METTL3 [1] | MOLM-13 West. blot at 24h 2 μM comp conc. Degradation (%) of METTL14 [2] | TCFA amplitude (mean ± SEM) [3] | ECmax (nM) ± SD [3] | ECmax [3] | viability at 72 h, 10 µM [4] | IC50 [5] | viability at 72 h, 0.6 µM [4] | viability at 72 h, 1.25 µM [4] | viability at 72 h, […] [4] | viability at 72 h, 5 µM [4]
1 | CC1(C)CCN(Cc2cc(F)c(N3CC(=O)NC4(CCN(c5cc(NCCCNC(=O)CCCCCCCCn6cc(CNc7cccc8c7C(=O)N(C7CCC(=O)NC7=O)C8=O)nn6)ncn5)CC4)C3)cc2F)CC1 (stereo not drawn) [Compound 12] | / (Degradation <10% or stabilization) | 11 ± 27% | 0.7 ± 0.1 | 320 ± 160 nM | below 1 μM | 94.3% | 67 ± 21 nM | – | – | – | –
2 | CC1(C)CCN(Cc2cc(F)c(N3CC(=O)NC4(CCN(c5cc(NCc6cccc(CNC(=O)CCCCCCCCn7cc(CNc8cccc9c8C(=O)N(C8CCC(=O)NC8=O)C9=O)nn7)c6)ncn5)CC4)C3)cc2F)CC1 (stereo not drawn) [Compound 19] | 33% and 33 ± 17% | 40% and 40 ± 16% | 0.9 ± 0.1 | 920 ± 150 nM | – | 87.6% | 88 ± 21 nM | 104% | 104% | 102% | 97.1%
3 | CC1(C)CCN(Cc2cc(F)c(N3CC(=O)NC4(CCN(c5cc(NCC6CCN(C(=O)CCCCCCCNc7cccc8c7C(=O)N(C7CCC(=O)NC7=O)C8=O)CC6)ncn5)CC4)C3)cc2F)CC1 (stereo not drawn) [Compound 25] | 20 ± 9% | 36 ± 7% | 1.2 ± 0.1 | 1200 ± 120 nM | – | 83.2% | 110 ± 10 nM | 102% | 94.8% | 92.1% | 87%
4 | CC1(C)CCN(Cc2cc(F)c(N3CC(=O)NC4(CCN(c5cc(NCc6cn(CCCCCCCCC(=O)Nc7cccc8c7CN(C7CCC(=O)NC7=O)C8=O)nn6)ncn5)CC4)C3)cc2F)CC1 (stereo not drawn) [Compound 26] | 13% and 13 ± 30% | 12 ± 5% | 0.8 ± 0.0 | 190 ± 80 nM | – | 97.3% | 34 ± 11 nM | 97.9% | 92.6% | 91.2% | 96.6%
5 | CC1(C)CCN(Cc2cc(F)c(N3CC(=O)NC4(CCN(c5cc(NCc6cccc(CNC(=O)CCCCCCCCCCNc7cccc8c7CN(C7CCC(=O)NC7=O)C8=O)c6)ncn5)CC4)C3)cc2F)CC1 (stereo not drawn) [Compound 17] | / (Degradation <10% or stabilization) | 13 ± 6% | 1.0 ± 0.0 | 920 ± 160 nM | – | 106% | 160 ± 20 nM | 106% | 109% | 112% | 106%
6 | CC1(C)CCN(Cc2cc(F)c(N3CC(=O)NC4(CCN(c5cc(NCc6cccc(CNC(=O)CCn7cc(CNc8cccc9c8C(=O)N(C8CCC(=O)NC8=O)C9=O)nn7)c6)ncn5)CC4)C3)cc2F)CC1 (stereo not drawn) [Compound 18] | 19 ± 13% | 30 ± 12% | 0.6 ± 0.1 | 80 ± 0 nM | – | 105% | 14 ± 3 nM | 101% | 105% | 104% | 102%
7 | CC1(C)CCN(Cc2cc(F)c(N3CC(=O)NC4(CCN(c5cc(NCCCNC(=O)CCCCCCCCCCNc6cccc7c6CN(C6CCC(=O)NC6=O)C7=O)ncn5)CC4)C3)cc2F)CC1 (stereo not drawn) [Compound 11] | / (Degradation <10% or stabilization) | 17 ± 22% | 0.3 ± 0.0 | 910 ± 40 nM | below 1 μM | 84.6% | 300 ± 40 nM | – | – | – | –
8 | CC1(C)CCN(Cc2cc(F)c(N3CC(=O)NC4(CCN(c5cc(NCCCNC(=O)CCCCCCCCNc6cccc7c6CN(C6CCC(=O)NC6=O)C7=O)ncn5)CC4)C3)cc2F)CC1 (stereo not drawn) [Compound 10] | 18 ± 6% | 18 ± 16% | 1.0 ± 0.0 | 200 ± 110 nM | below 1 μM | 86.6% | 66 ± 10 nM | – | – | – | –
9 | CC1(C)CCN(Cc2cc(F)c(N3CC(=O)NC4(CCN(c5cc(NCc6cccc(CNC(=O)CCCCCNc7cccc8c7C(=O)N(C7CCC(=O)NC7=O)C8=O)c6)ncn5)CC4)C3)cc2F)CC1 (stereo not drawn) [Compound 15] | / (Degradation <10% or stabilization) | / (Degradation <10% or stabilization) | 0.8 ± 0.1 | 640 ± 30 nM | – | 84.6% | 33 ± 4 nM | 91.2% | 94.8% | 97.2% | 89.4%
10 | CC1(C)CCN(Cc2ccc(N3CC(=O)NC4(CCN(c5cc(NCCCNC(=O)CCOCCOCCOCCNc6cccc7c6C(=O)N(C6CCC(=O)NC6=O)C7=O)ncn5)CC4)C3)cc2)CC1 (stereo not drawn) [Compound 2] | / (Degradation <10% or stabilization) | / (Degradation <10% or stabilization) | 0.3 ± 0.1 | 2800 ± 280 nM | 2.8 µM | – | 1060 ± 220 nM | – | – | – | –
